Reference: patent US20160318987A1 (MEDIMMUNE LIMITED, priority 2013, published 2016)
“Also recorded” adds a separate entry of the source. Each block holds one compound with its values, some of them ahead of it. Where a SMILES comes first, the peptide text is derived from it. [ ]: non-standard residue; d: D form. The star is where a group is joined. Palmitoyl = CCCCCCCCCCCCCCCC(=O)*; αMeF = C[C@](N)(Cc1ccccc1)C(=O)O; αMeK = C[C@](N)(CCCCN)C(=O)O; Aib = CC(C)(N)C(=O)O

Tests used:
Neprilysin (rhNEP) = molecular target: T1, Neprilysin (rhNEP) (Homo sapiens, UniProt P08473); test: neprilysin stability study (LC/MS); format: in vitro ADME; conditions: Table 2 description
T1 construct: purchased R&D Systems 1182-ZNC-010
T1 sequence (P08473 52-750 limits assumed): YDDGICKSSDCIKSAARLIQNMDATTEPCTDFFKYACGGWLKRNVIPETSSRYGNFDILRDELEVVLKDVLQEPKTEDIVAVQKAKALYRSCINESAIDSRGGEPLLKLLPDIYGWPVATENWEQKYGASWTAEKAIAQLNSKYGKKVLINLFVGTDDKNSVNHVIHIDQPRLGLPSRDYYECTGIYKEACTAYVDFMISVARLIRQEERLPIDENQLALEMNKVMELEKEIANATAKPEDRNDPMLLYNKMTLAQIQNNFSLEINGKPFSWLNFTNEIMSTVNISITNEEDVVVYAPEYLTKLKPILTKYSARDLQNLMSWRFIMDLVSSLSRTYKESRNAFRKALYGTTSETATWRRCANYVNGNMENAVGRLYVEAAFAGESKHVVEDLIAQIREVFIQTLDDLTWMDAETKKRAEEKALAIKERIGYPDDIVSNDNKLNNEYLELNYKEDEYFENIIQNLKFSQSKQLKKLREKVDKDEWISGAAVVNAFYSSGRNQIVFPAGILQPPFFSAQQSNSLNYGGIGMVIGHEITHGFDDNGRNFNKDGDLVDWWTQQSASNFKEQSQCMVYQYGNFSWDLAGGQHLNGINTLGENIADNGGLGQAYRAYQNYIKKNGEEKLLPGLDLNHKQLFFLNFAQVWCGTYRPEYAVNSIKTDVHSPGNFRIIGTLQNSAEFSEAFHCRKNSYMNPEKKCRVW
Protocol: (§1) Peptides for evaluation were prepared to a concentration of 1.0 mg/mL solutions in either pure water, sterile saline for injection (0.9% w/v NaCl/water) or 1× PBS (Dulbecco). 100 μL (100 μg/mL peptide) of these solutions was added to 900 μL of each protease solution. Additional experiments were performed examining protein degradation during exposure to serum and gastric fluid. For serum studies, peptides were incubated with 50% female Sprague-Dawley strain rat serum (SD rat serum). For gastric fluid studies, peptides were incubated 1:1 (volume:volume), fresh rat gastric fluid.
(§2) The peptide and enzyme (or serum or gastric fluid) were co-incubated in a temperature regulated water bath at 37° C. for the duration of the experiment. During each experiment 100 μL aliquots (10 μg peptide) of the incubated peptide-enzyme mixture were withdrawn periodically, quenched by addition of an equal volume of 5% TFA (v/v) in 1:1 water/acetonitrile to arrest proteolytic activity, and analyzed by liquid chromatography-mass spectrometry (LC/MS): Agilent Polaris C8-A column (4.6×100 mm, 3 micron) using a linear binary gradient of 10-90% MeCN (0.1% TFA v/v) in water (0.1% TFA v/v) over 30 minutes at 1.5 mL min^−1 at ambient temperature. Analytes were detected by both UV absorption at 210 nm and ionization using a Waters 3100 mass detector (ESI^+ mode). New peptidic species (fragments) derived from enzymatic cleavage of peptides were analyzed post-process, and their molecular masses were used to identify the precise cleavage position (highlighting the scissile bond in each case).

hGluc-R = molecular target: T2, hGluc-R (Homo sapiens, UniProt P47871); test: cAMP functional assay, cells expressing human glucagon receptor (primary assay); format: cell-based; conditions: n = 2
T2 construct: expressed in transfected cells
T2 sequence (P47871 26-477): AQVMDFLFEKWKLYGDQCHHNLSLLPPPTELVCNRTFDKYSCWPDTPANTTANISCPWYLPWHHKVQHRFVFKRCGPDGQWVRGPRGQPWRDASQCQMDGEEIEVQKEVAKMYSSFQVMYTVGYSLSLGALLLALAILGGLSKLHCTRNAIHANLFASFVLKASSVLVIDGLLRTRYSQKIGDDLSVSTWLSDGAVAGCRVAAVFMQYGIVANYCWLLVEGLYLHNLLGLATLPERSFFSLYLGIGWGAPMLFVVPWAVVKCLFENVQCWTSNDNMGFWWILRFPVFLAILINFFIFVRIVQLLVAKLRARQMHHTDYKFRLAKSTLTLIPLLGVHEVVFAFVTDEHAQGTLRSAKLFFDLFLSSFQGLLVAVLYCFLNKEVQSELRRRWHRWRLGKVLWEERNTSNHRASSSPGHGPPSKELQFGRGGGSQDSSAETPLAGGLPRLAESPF

hGIP-R = molecular target: T3, hGIP-R (Homo sapiens, UniProt P48546); test: cAMP functional assay, cells expressing human GIP receptor (primary assay); format: cell-based; conditions: n = 2
T3 construct: expressed in transfected cells
T3 sequence (P48546 22-466): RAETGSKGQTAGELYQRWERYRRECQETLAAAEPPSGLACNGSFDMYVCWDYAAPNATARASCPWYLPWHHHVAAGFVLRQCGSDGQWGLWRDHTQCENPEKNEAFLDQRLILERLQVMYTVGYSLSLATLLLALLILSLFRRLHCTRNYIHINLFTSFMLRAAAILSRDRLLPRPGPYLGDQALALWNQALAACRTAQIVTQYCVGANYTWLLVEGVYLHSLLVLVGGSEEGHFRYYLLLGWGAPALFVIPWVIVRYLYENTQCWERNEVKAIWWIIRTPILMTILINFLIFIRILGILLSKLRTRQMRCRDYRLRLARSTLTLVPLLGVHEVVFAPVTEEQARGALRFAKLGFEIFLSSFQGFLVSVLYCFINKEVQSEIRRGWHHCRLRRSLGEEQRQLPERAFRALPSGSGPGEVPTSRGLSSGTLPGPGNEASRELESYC

hGLP-1R = molecular target: T4, hGLP-1R (Homo sapiens, UniProt P43220); test: cAMP functional assay, cells expressing human GLP-1 receptor (primary assay); format: cell-based; conditions: n = 2
T4 construct: expressed in transfected cells
T4 sequence (P43220 24-463): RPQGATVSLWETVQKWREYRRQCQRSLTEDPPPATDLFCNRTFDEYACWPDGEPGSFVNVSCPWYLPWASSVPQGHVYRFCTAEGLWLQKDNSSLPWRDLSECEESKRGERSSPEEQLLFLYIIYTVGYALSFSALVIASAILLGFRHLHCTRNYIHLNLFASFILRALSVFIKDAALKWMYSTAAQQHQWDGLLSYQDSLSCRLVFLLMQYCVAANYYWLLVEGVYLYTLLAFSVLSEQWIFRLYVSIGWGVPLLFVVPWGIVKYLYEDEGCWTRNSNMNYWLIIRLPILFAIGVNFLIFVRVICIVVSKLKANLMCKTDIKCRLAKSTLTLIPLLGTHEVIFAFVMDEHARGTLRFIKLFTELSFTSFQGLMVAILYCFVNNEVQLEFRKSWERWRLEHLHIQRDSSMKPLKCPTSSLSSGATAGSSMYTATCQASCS

[1] = molecular target: T5, trypsin from porcine pancreas (Sus scrofa, UniProt P00761); test: trypsin stability study (LC/MS); format: in vitro ADME
T5 construct: purchased Sigma P7409; host or cells: porcine pancreas
T5 sequence (P00761 9-231): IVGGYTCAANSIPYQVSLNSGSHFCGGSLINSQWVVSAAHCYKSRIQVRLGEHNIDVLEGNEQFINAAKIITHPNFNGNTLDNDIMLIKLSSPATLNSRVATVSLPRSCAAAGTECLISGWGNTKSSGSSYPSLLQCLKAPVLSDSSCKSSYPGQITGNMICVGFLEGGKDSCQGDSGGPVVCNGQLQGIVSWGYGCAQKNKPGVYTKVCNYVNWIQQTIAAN
Protocol: as §1, §2

Chymotrypsin (rhCTRC) [2] = molecular target: T6, Chymotrypsin (rhCTRC) (Homo sapiens, UniProt Q99895); test: chymotrypsin stability study (LC/MS); format: in vitro ADME
T6 construct: purchased R&D Systems 6907-SE-010
T6 sequence (Q99895 30-268): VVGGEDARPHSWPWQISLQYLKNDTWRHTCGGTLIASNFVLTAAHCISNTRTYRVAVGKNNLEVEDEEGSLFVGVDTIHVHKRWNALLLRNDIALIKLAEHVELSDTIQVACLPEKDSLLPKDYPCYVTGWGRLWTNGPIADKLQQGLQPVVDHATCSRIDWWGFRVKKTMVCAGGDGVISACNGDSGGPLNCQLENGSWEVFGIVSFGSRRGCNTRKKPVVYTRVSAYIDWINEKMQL
Protocol: as §1, §2

[3] = tested on: DPP-IV, Neprilysin, Chymotrypsin, Trypsin, Pepsin; test: enzyme resistance, protease panel (Table 2 description); format: in vitro ADME
Protocol: as §1, §2

[4] = gastric fluid stability study (LC/MS); format: in vitro ADME, rat
Protocol: as §1, §2

Chymotrypsin (rhCTRC) [5] = test: 1.0 μg rhCTRC in 900 μL assay buffer: 50 mM Tris, 10 mM CaCl2, 150 mM NaCl, 1 mM HCl, pH 7.8; conditions: 37° C., up to over 60 hours
Trypsin = test: 1 mg/mL lyophilized trypsin from porcine pancreas in 50 mM Tris, 10 mM CaCl2, 150 mM NaCl, 1 mM HCl, pH 7.8; conditions: 37° C., up to over 18 hours
[6] = tested on: Trypsin, Sigma P7409 (Type II-S); test: as above; conditions: 37° C., up to over 18 hours
[7] = tested on: Neprilysin (Neutral endopeptidase, rhNEP); test: 1.0 μg rhNEP in 900 μL assay buffer: 50 mM Tris, 50 mM NaCl, 50 mM NaHCO3, pH 8.3; conditions: 37° C., up to 240 hours

enzyme resistance (DPP-IV, Neprilysin, Chymotrypsin, Trypsin, Pepsin) [3]: excellent enzyme resistance
EC50 (hGluc-R): 93.1 nM
EC50 (hGIP-R): 93.1 nM
stability relative to Liraglutide ([4]; rat gastric fluid 1:1): significantly exceeds
stability relative to lipidated comparator SEQ ID NO: 5 ([4]; rat gastric fluid 1:1): significantly exceeds
spectrum over the time course ([4]; rat gastric fluid, zoomed spectra): virtually unchanged spectrum
EC50 (hGLP-1R): 0.41 nM
Compound: CCCCCCCCCCCCCCCC(=O)NCCCC[C@H](NC(=O)CNC(=O)CNC(=O)[C@](C)(CCCCN)NC(=O)[C@@H](NC(=O)[C@@H](NC(=O)[C@](C)(Cc1ccccc1)NC(=O)[C@H](C)NC(=O)[C@@H](NC(=O)[C@](C)(Cc1ccccc1)NC(=O)[C@H](CCC(=O)O)NC(=O)[C@](C)(CCCCN)NC(=O)[C@H](C)NC(=O)[C@H](C)NC(=O)[C@H](CCC(N)=O)NC(=O)CNC(=O)[C@H](CCC(=O)O)NC(=O)[C@H](CC(C)C)NC(=O)[C@](C)(Cc1ccccc1)NC(=O)[C@H](CO)NC(=O)[C@H](CO)NC(=O)[C@@H](NC(=O)[C@H](CC(=O)O)NC(=O)[C@H](CO)NC(=O)[C@@H](NC(=O)[C@](C)(Cc1ccccc1)NC(=O)[C@H](CO)NC(=O)CNC(=O)[C@H](CCC(=O)O)NC(=O)C(C)(C)NC(=O)[C@@H](N)Cc1c[nH]cn1)[C@@H](C)O)C(C)C)[C@@H](C)CC)C(C)C)C(C)C)C(N)=O [SEQ ID NO: 52, H-(Aib)^2-EG-(S)^5-(α-MeF)^6-TSDV^10 SS-(α-MeF)^13-LE^15 GQAA-(α-MeK)^20 E-(α-MeF)^22-IA-(α-MeF)^25-(V)^26-V-(α-MeK)^28-G-(G)^30-K(Ε-Palm)] (H-H[Aib]EGS[αMeF]TSDVSS[αMeF]LEGQAA[αMeK]E[αMeF]IA[αMeF]VV[αMeK]GGK(Palmitoyl)-NH2)

not cleaved [6]: intact
Compound: H-(Aib)^2-EG-(S)^5-(α-MeF)^6-TSDV^10 SS-(α-MeF)^13-LE^15 GQAAK^20 E-(α-MeF)^22-IA-(α-MeF)^25 L-(Aib)^27-K-(Aib)^29-R^30

cleaved bond (Chymotrypsin (rhCTRC) [5]): Leu26-Val27, by 48 hours
Compound: H-(Aib)^2-EG-(S)^5-(α-MeF)^6-TSDV^10 SS-(α-MeF)^13-LE^15 GQAAK^20 E-(α-MeF)^22-IA-(α-MeF)^25 LVKGR^30
not cleaved [7]: no proteolytic degradation over a 96 hour time-course; still stable after 10 days
cleaved bond (Trypsin): Lys20-E21, by 90 minutes; also recorded: Lys28-G29, by 90 minutes

The next lines start with the compound.

Compound: CC[C@H](C)[C@H](NC(=O)[C@](C)(Cc1ccccc1)NC(=O)[C@H](CCC(=O)O)NC(=O)[C@](C)(CCCCN)NC(=O)[C@H](C)NC(=O)[C@H](C)NC(=O)[C@H](CCC(N)=O)NC(=O)CNC(=O)[C@H](CCC(=O)O)NC(=O)[C@H](CC(C)C)NC(=O)[C@](C)(Cc1ccccc1)NC(=O)[C@H](CO)NC(=O)[C@H](CO)NC(=O)[C@@H](NC(=O)[C@H](CC(=O)O)NC(=O)[C@H](CO)NC(=O)[C@@H](NC(=O)[C@](C)(Cc1ccccc1)NC(=O)[C@H](CO)NC(=O)CNC(=O)[C@H](CCC(=O)O)NC(=O)C(C)(C)NC(=O)[C@@H](N)Cc1c[nH]cn1)[C@@H](C)O)C(C)C)C(=O)N[C@@H](C)C(=O)N[C@@](C)(Cc1ccccc1)C(=O)N[C@@H](CC(C)C)C(=O)N[C@H](C(=O)N[C@@](C)(CCCCN)C(=O)NCC(=O)NCC(N)=O)C(C)C [SEQ ID NO: 46, H-(Aib)^2-EG-(S)^5-(α-MeF)^6-TSDV^10 SS-(α-MeF)^13-LE^15 GQAA-(α-MeK)^20 E-(α-MeF)^22-IA-(α-MeF)^25 LV-(α-MeK)^28-G-(G)^30] (H-H[Aib]EGS[αMeF]TSDVSS[αMeF]LEGQAA[αMeK]E[αMeF]IA[αMeF]LV[αMeK]GG-NH2)
Neprilysin resistance (Discussion / Description) (Neprilysin (rhNEP)): resistance, maintaining
EC50 (hGluc-R): 103 nM
EC50 (hGIP-R): 103 nM
EC50 (hGLP-1R): 0.0141 nM
Trypsin resistance/susceptibility (Discussion / Description) ([1]; Table 2 description): resistance, maintaining

Compound: CC[C@H](C)[C@H](NC(=O)[C@](C)(Cc1ccccc1)NC(=O)[C@H](CCC(=O)O)NC(=O)[C@](C)(CCCCN)NC(=O)[C@H](C)NC(=O)[C@H](C)NC(=O)[C@H](CCC(N)=O)NC(=O)CNC(=O)[C@H](CCC(=O)O)NC(=O)[C@H](CC(C)C)NC(=O)[C@](C)(Cc1ccccc1)NC(=O)[C@H](CO)NC(=O)[C@H](CO)NC(=O)[C@@H](NC(=O)[C@H](CC(=O)O)NC(=O)[C@H](CO)NC(=O)[C@@H](NC(=O)[C@](C)(Cc1ccccc1)NC(=O)[C@H](CO)NC(=O)CNC(=O)[C@H](CCC(=O)O)NC(=O)C(C)(C)NC(=O)[C@@H](N)Cc1c[nH]cn1)[C@@H](C)O)C(C)C)C(=O)N[C@@H](C)C(=O)N[C@@](C)(Cc1ccccc1)C(=O)N[C@H](C(=O)N[C@H](C(=O)N[C@@](C)(CCCCN)C(=O)NCC(=O)NCC(N)=O)C(C)C)C(C)C [SEQ ID NO: 51, H-(Aib)^2-EG-(S)^5-(α-MeF)^6-TSDV^10 SS-(α-MeF)^13-LE^15 GQAA-(α-MeK)^20 E-(α-MeF)^22-IA-(α-MeF)^25-(V)^26-V-(α-MeK)^28-G-(G)^30] (H-H[Aib]EGS[αMeF]TSDVSS[αMeF]LEGQAA[αMeK]E[αMeF]IA[αMeF]VV[αMeK]GG-NH2)
Chymotrypsin cleavage/liability (Discussion / Description) (Chymotrypsin (rhCTRC) [2]; Table 2 description): overcoming Chymotrypsin
duration of stability, no major cleavage products (Chymotrypsin (rhCTRC) [2]; chymotrypsin, 37° C.): over 60 hours
EC50 (hGluc-R): 104 nM
EC50 (hGIP-R): 104 nM
EC50 (hGLP-1R): 0.0219 nM
duration of stability ([1]; trypsin, 37° C.): over 18 hours

Compound: H-(Aib)^2-EG-(S)^5-(α-MeF)^6-TSDV^10 SS-(α-MeF)^13-LE^15 GQAA-(α-MeK)^20 E-(α-MeF)^22-IA-(α-MeF)^25-(V)^26-V-(α-MeK)^28-G-(G)30
not cleaved (Chymotrypsin (rhCTRC) [5]): stability for over 60 hours, with no major cleavage products observed
not cleaved (Trypsin): significantly extended stability for over 18 hours

Compound: H-(Aib)^2-EGT^5 FTSDV^10 SSYLE^15 GQAAK^20 EFIAW^25 LVKGR^30
cleaved bond [7]: T5-Phe6; also recorded: S12-Tyr13; also recorded: E21-Phe22; also recorded: A24-Trp25
cleaved bond (Trypsin): Lys20-E21, by 90 minutes; also recorded: Lys28-G29, by 90 minutes
